Measured values as given in patent publication US7300939B2, “Substituted 1-propiolylpiperazine compounds, their preparation and use” (Gruenenthal GmbH, priority 2005, dated 2007).
Where a name gives a salt, the structure may show the parent alone.

What was measured:
rats = experiment: Formalin test in rats; assay type: in vivo, rat
mGluR5 receptor [1] = target: T1, mGluR5 receptor (Sus scrofa, UniProt I3LUI7); experiment: [3H]-MPEP binding in the mGluR5 receptor binding assay (pig brain homogenate); conditions: for mGluR5-receptor (% inhibition 10 μM) in pigs: pig brain homogenate, 5 nM [3H]-MPEP
T1 construct: from tissue; host or cells: pig brain halves without medulla, cerebellum and pons
T1 sequence (I3LUI7 19-1212): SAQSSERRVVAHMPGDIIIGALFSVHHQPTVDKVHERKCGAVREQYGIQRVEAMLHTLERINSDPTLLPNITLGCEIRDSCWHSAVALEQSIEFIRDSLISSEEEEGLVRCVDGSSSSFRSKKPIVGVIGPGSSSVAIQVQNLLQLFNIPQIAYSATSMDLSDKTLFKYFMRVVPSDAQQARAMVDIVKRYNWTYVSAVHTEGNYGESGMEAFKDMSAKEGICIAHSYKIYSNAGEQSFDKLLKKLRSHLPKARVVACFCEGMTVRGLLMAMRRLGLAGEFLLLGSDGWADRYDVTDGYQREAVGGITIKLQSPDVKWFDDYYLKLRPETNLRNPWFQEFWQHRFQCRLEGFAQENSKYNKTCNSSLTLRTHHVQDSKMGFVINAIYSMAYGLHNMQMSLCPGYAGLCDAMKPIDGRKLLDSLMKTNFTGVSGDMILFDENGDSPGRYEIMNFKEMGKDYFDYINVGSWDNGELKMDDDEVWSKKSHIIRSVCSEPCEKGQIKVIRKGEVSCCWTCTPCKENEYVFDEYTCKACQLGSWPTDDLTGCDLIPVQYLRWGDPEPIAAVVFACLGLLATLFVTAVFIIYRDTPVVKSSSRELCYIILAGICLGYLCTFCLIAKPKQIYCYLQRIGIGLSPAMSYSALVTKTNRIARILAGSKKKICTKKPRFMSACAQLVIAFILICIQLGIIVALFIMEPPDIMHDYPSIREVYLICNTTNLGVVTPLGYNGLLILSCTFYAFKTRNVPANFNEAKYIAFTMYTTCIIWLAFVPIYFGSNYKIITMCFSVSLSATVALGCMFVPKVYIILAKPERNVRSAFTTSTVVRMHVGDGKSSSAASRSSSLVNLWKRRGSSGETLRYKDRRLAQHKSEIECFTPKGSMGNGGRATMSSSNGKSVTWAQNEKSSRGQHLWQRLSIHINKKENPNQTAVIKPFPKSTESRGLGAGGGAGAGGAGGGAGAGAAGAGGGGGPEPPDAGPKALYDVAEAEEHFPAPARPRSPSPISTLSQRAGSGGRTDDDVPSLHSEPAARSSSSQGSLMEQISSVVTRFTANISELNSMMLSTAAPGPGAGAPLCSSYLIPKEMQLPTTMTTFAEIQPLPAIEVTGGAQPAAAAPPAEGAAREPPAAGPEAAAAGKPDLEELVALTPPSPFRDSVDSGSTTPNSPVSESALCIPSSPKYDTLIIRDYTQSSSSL
Procedure: I. Method the Determination of the Inhibition of the [^3H]-MPEP Binding in the mGluR5 Receptor Binding Assay
Pig brain homogenate is prepared by homogenization (Polytron PT 3000, Kinematica AG, 10,000 revolutions per minute 90 seconds) of pig brain halves without medulla, cerebellum and pons in a buffer solution having a pH of 8.0 (30 mM of hepes, Sigma, order no. H3375+1 tablet of Complete to 100 ml, Roche Diagnostics, order no. 1836145) in a ratio of 1:20 (brain weight/volume) and differential centrifugation at 900×g and 40,000×g. In each case 450 μg of protein from brain homogenate are incubated with 5 nM [^3H]-MPEP (Tocris, order no. R1212) (MPEP=2-methyl-6-(3-methoxyphenyl)ethynylpyridine) and the compounds to be investigated (10 μM in the test) in a buffer solution (as above) in 250 μl incubation batches in 96-well microtiter plates at room temperature 60 min.
Thereafter, the batches are filtered with the aid of a Brandel cell harvester (Brandel, Robotic 9600 model) onto Unifilter plates with glass fiber filter mats (Perkin Elmer, order no. 6005177) and then rinsed with buffer solution (as above) 3 times with 250 μl per sample each time. The filter plates are then dried 60 min at 55° C. 30 μl Ultima Gold™ scintillator (Packard BioScience, order no. 6013159) are subsequently added per well and, after 3 hours, the samples are measured on a β-counter (Mikrobeta, Perkin Elmer). The non-specific binding is determined by addition of 10 μM of MPEP (Tocris, order no. 1212).

mGluR5 receptor [2] = target: T2, mGluR5 receptor (Rattus norvegicus, UniProt P31424); experiment: Ca2+ influx in the mGluR5 receptor assay (rat cortical neurons, FlexStation); assay type: cell-based; conditions: Table I; 10 μM DHPG
T2 construct: Cortical neurons are prepared from postnatal rats (P2-6) under sterile conditions; endogenous in cells; host or cells: primary cortical neurons from postnatal rats (P2-6)
T2 sequence (P31424 21-1203): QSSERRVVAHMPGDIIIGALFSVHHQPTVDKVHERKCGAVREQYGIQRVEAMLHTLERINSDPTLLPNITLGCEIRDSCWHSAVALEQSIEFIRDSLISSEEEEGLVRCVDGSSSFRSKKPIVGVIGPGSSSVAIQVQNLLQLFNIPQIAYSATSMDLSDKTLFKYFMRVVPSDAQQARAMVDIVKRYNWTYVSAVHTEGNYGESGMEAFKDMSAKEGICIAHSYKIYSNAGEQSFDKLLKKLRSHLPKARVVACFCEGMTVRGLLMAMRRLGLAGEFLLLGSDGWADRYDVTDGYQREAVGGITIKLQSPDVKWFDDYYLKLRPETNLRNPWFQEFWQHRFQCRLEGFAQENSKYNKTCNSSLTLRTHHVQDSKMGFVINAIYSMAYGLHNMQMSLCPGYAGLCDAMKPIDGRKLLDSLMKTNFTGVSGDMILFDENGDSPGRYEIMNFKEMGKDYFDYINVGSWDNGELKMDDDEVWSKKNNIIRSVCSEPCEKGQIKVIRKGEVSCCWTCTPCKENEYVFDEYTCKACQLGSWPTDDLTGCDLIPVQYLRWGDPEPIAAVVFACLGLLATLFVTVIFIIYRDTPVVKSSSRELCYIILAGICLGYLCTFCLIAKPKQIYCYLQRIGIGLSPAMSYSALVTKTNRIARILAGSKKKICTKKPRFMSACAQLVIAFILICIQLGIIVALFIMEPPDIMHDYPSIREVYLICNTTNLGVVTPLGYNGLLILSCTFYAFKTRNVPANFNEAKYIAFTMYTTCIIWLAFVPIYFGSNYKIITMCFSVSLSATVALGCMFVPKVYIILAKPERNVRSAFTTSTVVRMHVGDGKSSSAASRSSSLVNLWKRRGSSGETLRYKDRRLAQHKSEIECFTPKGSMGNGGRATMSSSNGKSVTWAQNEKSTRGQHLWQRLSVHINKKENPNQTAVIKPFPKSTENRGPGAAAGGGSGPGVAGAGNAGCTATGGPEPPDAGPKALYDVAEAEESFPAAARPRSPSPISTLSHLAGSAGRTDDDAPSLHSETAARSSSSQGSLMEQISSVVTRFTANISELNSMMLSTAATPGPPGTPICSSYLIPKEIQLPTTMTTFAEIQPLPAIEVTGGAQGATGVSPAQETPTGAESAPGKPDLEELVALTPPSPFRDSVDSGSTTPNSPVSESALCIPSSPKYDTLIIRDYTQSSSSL
Source text: II. Method Determination of the Ca^2+ Influx in the mGluR5 Receptor Assay
An agonistic and/or antagonistic action of substances can be determined with the following assay on the mGluR5 receptor of the rat species. According to this assay, the intracellular release of Ca^2+ after activation of the mGluR5 receptor is quantified with the aid of a Ca^2+-sensitive dyestuff (Fluo-4 type, Molecular Probes Europe BV, Leiden, Holland) in a FlexStation (Molecular Devices, Sunnyvale, USA).
Preparation of Cortical Neurons: […]
For the functional investigation, the cells are loaded with 2 μM of Fluo-4 and 0.01 vol. % Pluronic F127 (Molecular Probes Europe BV, Leiden, Holland) in HBSS buffer solution (Hank's buffer saline solution, Gibco Invitrogen GmbH, Karlsruhe, Germany) 30 min at 37° C. […] The Ca^2+-dependent fluorescence is measured before and after the addition of substances (λex=485 nm, λem=525 nm). Quantification is effected by measurement of the highest fluorescence intensity over time. […] After incubation 3 minutes, 10 μM of DHPG ((S)-3,5-dihydroxyphenylglycine, Tocris Biotrend Chemikalien GmbH, Cologne, Germany) are applied and the influx of Ca^2+ is determined simultaneously. mGluR5 antagonists led to a suppression of the Ca^2+ influx. […]

Row | mGluR5-receptor (% inhibition 10 μM) in pigs (mGluR5 receptor [1]) | SMILES | also measured
1 |  | O=C(C#Cc1ccccc1)N1CCN(c2nccs2)CC1 [Example AAA56, 4-(Thiazol-2-yl)-1-(3-phenylpropiolyl)piperazine hydrochloride] | Reduction of nociceptive behavior of rats compared with control rats [%] (rats; 46.4 mg/kg i.p.): 85%; IC50 (mGluR5 receptor [1]; Table II, unit inferred): 150 nM
2 | 97% | Cc1cccc(C#CC(=O)N2CCN(c3nccs3)CC2)c1.Cl [Example AAA54, 4-(Thiazol-2-yl)-1-(3-(3-tolyl)propiolyl)piperazine hydrochloride] | Reduction of nociceptive behavior of rats compared with control rats [%] (rats; 10.0 mg/kg i.v.): 72%
3 | 88% | O=C(C#Cc1cccc(Cl)c1)N1CCN(c2nccs2)CC1 [Example AAA24, 4-(Thiazol-2-yl)-1-(3-(3-chlorophenyl)propiolyl)piperazine] | Reduction of nociceptive behavior of rats compared with control rats [%] (rats; 46.4 mg/kg i.p.): 43%
4 | 76% | CNC(=O)c1cnc(N2CCN(C(=O)C#Cc3ccccc3)CC2)s1 [Example AAA80, 4-(5-Methylaminocarbonylthiazol-2-yl)-1-(3-phenylpropiolyl)piperazine] | 
5 | 65% | Nc1ccc(C#CC(=O)N2CCN(c3nccs3)CC2)cc1 [Example AAA8, 4-(Thiazol-2-yl)-1-(3-(4-aminophenyl)propiolyl)piperazine] | 
6 | 78% | N#Cc1cc(C#CC(=O)N2CCN(c3nccs3)CC2)ccc1F [Example AAA41, 4-(Thiazol-2-yl)-1-(3-(3-cyano-4-fluorophenyl)propiolyl)piperazine] | 
7 | 94% | Cc1cccc(C#CC(=O)N2CCN(c3nccs3)CC2C)c1.Cl (stereo not shown) [Example AAA67, 2-Methyl-4-(thiazol-2-yl)-1-(3-(3-tolyl)propiolyl)piperazine hydrochloride] | 
8 | 68% | Cc1noc(-c2cnc(N3CCN(C(=O)C#Cc4ccccc4)CC3)s2)n1 [Example AAA00106, 4-(5-(3-Methyl-1,2,4-oxadiazol-5-yl)thiazol-2-yl)-1-(3-phenylpropiolyl)piperazine] | 
9 |  | O=C(C#Cc1ccccc1)N1CCN(c2nccs2)CC1 [Example 1, 1-(3-phenylpropiolyl)-4-(thiazol-2-yl)piperazine] | IC50 (mGluR5 receptor [2]): 190 nM; IC50 (mGluR5 receptor [1]; Table I): 100 nM
10 | 14% | CN(C)C(=O)C#CC(=O)N1CCN(c2nccs2)CC1 [Example AAA00114, 4-(Thiazol-2-yl)-1-(dimethylcarbamoylpropiolyl)piperazine] | 
11 |  | C=Cc1cccc(C#CC(=O)N2CCN(c3nccs3)CC2)c1 [Example AAA31, 4-(Thiazol-2-yl)-1-(3-(3-ethenylphenyl)propiolyl)piperazine] | IC50 (mGluR5 receptor [1]; Table II, unit inferred): 38 nM
12 | 34% | COc1ccc(C#CC(=O)N2CCN(c3nccs3)CC2)cc1 [Example AAA14, 4-(Thiazol-2-yl)-1-(3-(4-methoxyphenyl)propiolyl)piperazine] | 
13 | 72% | C[C@H]1CN(c2nccs2)CCN1C(=O)C#Cc1ccccc1 [Example AAA64, (S)-2-Methyl-4-(thiazol-2-yl)-1-(3-phenylpropiolyl)piperazine] | 
14 | 43% | COC(=O)c1cccc(C#CC(=O)N2CCN(c3nccs3)CC2)c1 [Example AAA49, 4-(Thiazol-2-yl)-1-(3-(3-carboxyphenyl)propiolyl)piperazine methyl ester] | 
15 | 93% | Cc1cccc(C#CC(=O)N2CCN(c3nc(C)cs3)CC2)c1 [CCC31, 4-(4-Methylthiazol-2-yl)-1-(3-(tol-3-yl)propiolyl)piperazine] | 
16 | 31% | CS(=O)(=O)c1cccc(C#CC(=O)N2CCN(c3nccs3)CC2)c1 [Example AAA00116, 4-(Thiazol-2-yl)-1-(3-(3-methylsulfonylphenyl)propiolyl)piperazine] | 
17 | 91% | O=Cc1cccc(C#CC(=O)N2CCN(c3nccs3)CC2)c1 [Example AAA30, 4-(Thiazol-2-yl)-1-(3-(3-formylphenyl)propiolyl)piperazine] | 
18 | 37% | O=C(C#Cc1ccccc1)N1CCN(c2nc(-c3ccccc3)ns2)CC1 [Example AAA82, 4-(3-Phenyl-1,2,4-thiadiazol-5-yl)-1-(3-phenylpropiolyl)piperazine] | 
19 | 86% | O=C(C#Cc1cccc(F)c1)N1CCN(c2nccs2)CC1 [Example AAA22, 4-(Thiazol-2-yl)-1-(3-(3-fluorophenyl)propiolyl)piperazine] | 
20 | 31% | O=C(C#Cc1ccccc1)N1CCN(c2ncc([N+](=O)[O-])s2)CC1 [Example AAA86, 4-(5-Nitrothiazol-2-yl)-1-(3-phenylpropiolyl)piperazine] | 
21 | 40% | CC(C)c1cccc(C#CC(=O)N2CCN(c3nccs3)CC2)c1 [Example AAA36, 4-(Thiazol-2-yl)-1-(3-(3-isopropylphenyl)propiolyl)piperazine] | 
22 | 71% | O=C(C#Cc1ccncc1)N1CCN(c2nccs2)CC1 [Example AAA34, 4-(Thiazol-2-yl)-1-(3-pyrid-4-ylpropiolyl)piperazine] | 
23 | 93% | O=C(C#Cc1ccccc1)N1CCN(c2nc(Cc3ccc(F)cc3)ns2)CC1 [Example AAA85, 4-(3-(4-Fluorobenzyl)-1,2,4-thiadiazol-5-yl)-1-(3-phenylpropiolyl)piperazine] | 
24 | 33% | CC(C)(C)c1nsc(N2CCN(C(=O)C#Cc3cccs3)CC2)n1 [CCC16, 4-(3-tert-Butyl-1,2,4-thiadiazol-5-yl)-1-(3-(thiophen-2-yl)propiolyl)piperazine] | 
25 | 81% | Cl.O=C(C#Cc1ccccc1C(F)(F)F)N1CCN(c2nccs2)CC1 [Example AAA57, 4-(Thiazol-2-yl)-1-(3-(2-trifluoromethylphenyl)propiolyl)piperazine hydrochloride] | 
26 |  | Cc1cccc(C#CC(=O)N2CCN(c3nccs3)CC2C)c1 (stereo not shown) [Example AAA68, 2-Methyl-4-(thiazol-2-yl)-1-(3-(3-tolyl)propiolyl)piperazine] | Reduction of nociceptive behavior of rats compared with control rats [%] (rats; 46.4 mg/kg p.o.): 66%; IC50 (mGluR5 receptor [1]; Table II, unit inferred): 13 nM
